These results are taken from US20220152071A1, “MARKERS OF EFFICACY OF TOPOISOMERASE POISONS” (Northwestern University, priority 2019, published 2022).

For data set [1], the system named is RPS11 KO SNB19 cells. In words: Viability assay, RPS11 KO cells. It counts as cell-based, human. To be noted: 5 μM, 72 hrs. On the procedure: (§1) Single gene editing. To edit FANCB and RPS11, we used single guide RNAs that were enriched for both genes as well as the non-targeting controls. Briefly, these guides were synthesized by Synthego and following the protocol, we prepared the ribonucleoprotein complexes by mixing the guides (180 pmol) with recombinant Cas9 protein (Synthego) 20 pmol in […]. The complexes were allowed to form at room temp for 15 mins, and then […] of Opti-MEM I reduced serum medium and […] of lipofectamine Cas9 plus reagent were then added. Both, the cells and the formed ribonucleoprotein complexes, were seeded at the same time with 150,000 SNB19 cells in a T25 flask. The cells were incubated for 4 days.
(§2) Viability assay. […] Titre glo was added following incubation with drugs. (Cat No: G7572) and the viability of cells was analyzed 5 min later by measuring the luminescence. We normalized the intensity against DMSO treated cells of each cell line or PDX or the edited cell and then determined the survival. Pictures of these cells were also taken as shown in the source data figures.

Data set [2] has as its system FANCB KO SNB19 cells. In words: Viability assay, FANCB KO cells. The data set is classed as cell-based, human. To be noted: 5 μM, 72 hrs. Here is the method: as §1, §2
In data set [3] the test system is SNB19. In words: Viability assay (Titre glo), susceptible glioma cell line. The data set is classed as cell-based, human. The conditions noted are these: etoposide 5 μM, 72 hrs. On the procedure:
as §2

The subject of data set [4] is resistant glioma cell lines. Description: Viability assay, resistant glioma cell lines. The conditions noted are these: etoposide 5 μM, 72 hrs. It counts as cell-based, human. On the procedure:
as §2

The subject of data set [5] is SNB19 cells. Description: Genome-wide CRISPR KO screen, etoposide selection. The data set is classed as cell-based, human. To be noted: etoposide 5 μM, 14 days, CRISPR KO library SNB19 cells.
Procedure: Large scale cell culture and expansion. To perform the CRISPR screening, SNB19 cells were expanded to 500 million and then spinfected with 70,000sgRNA. After spinfection, the cells are selected with 0.6 μg/ml of puromycin for 4 days. This selection is aimed at the cells that have been rightly integrated with the sgRNA that incorporates the puromycin cassette into their genome. […] We used 50 million of selected cells for the extraction of genomic DNA. The base sgRNA representation is obtained by amplification of the sgRNA with unique barcoded primers. The remaining 100 million cells were expanded for 2 days, once cells grew to 200 million. […] After 14 days, the cells were harvested, the gDNA extracted, and the sgRNA amplified with another unique barcoded primer.
Data set [6] deals with GBM12. In words: Etoposide dose-response viability. It counts as cell-based, human. To be noted: GBM12, dose-response in vitro 72 hrs. Here is the method: as §2
Data set [7] concerns GBM43. In words: Etoposide dose-response viability. The conditions noted are these: GBM43, dose-response in vitro 72 hrs. The data set is classed as cell-based, human. On the procedure:
as §2

The test system of data set [8] is GBM6. In words: Etoposide dose-response viability. It counts as cell-based, human. To be noted: GBM6, dose-response in vitro 72 hrs. Here is the method: as §2
The test system of data set [9] is MES83. Description: Etoposide dose-response viability. It counts as cell-based, human. To be noted: MES83, dose-response in vitro 72 hrs. On the procedure:
as §2

The subject of data set [10] is U251. Description: Etoposide dose-response viability. To be noted: U251, dose-response in vitro 72 hrs. It counts as cell-based, human. Here is the method:
as §2

Data set [11] has as its system SNB19. In words: Click-it Plus OPP nascent protein synthesis. The data set is classed as cell-based, human. To be noted: SNB19, 5 μM, 24 hrs. On the procedure:
(§3) Click-it Plus OPP Assay, Apoptosis Assay and Flow Cytometry. To determine if nascent protein synthesis is impaired upon editing of RPS11 and FANCB. We seeded edited cells SgRPS11, SgFANCB, wild type SNB19 and the non-targeting controls in a 96 well plate with black covers overnight at 4,000 cells/well. […] Following the protocol from Life technologies (Cat No: C10456), we added the Click-it OPP (1:1000), or Caspase 3/7 (Cat no: C10427) or with antibodies against BID, BCL2 or APAF1 for 30 mins. After washing cells were fixed and primary antibodies were detected secondary antibodies conjugated to Alexa Flour 488. The fluorophore intensity was measured by flow cytometry (LSR Fortessa 1 analyzer). As a complementary approach, the labelled cells were also imaged in a fluorescent microscope (Nikon Ti2 Widefield).

For data set [12], the system named is U251. In words: Click-it Plus OPP nascent protein synthesis. To be noted: U251, 5 μM, 24 hrs. The data set is classed as cell-based, human.
Data set [13] concerns GBM6. In words: Click-it Plus OPP nascent protein synthesis. It counts as cell-based, human. To be noted: GBM6, 5 μM, 24 hrs.
Data set [14] deals with GBM12. In words: Click-it Plus OPP nascent protein synthesis. It counts as cell-based, human. To be noted: GBM12, 5 μM, 24 hrs.
Data set [15] deals with APAF1, RPS11 KO cells. In words: APAF1 expression (qRT-PCR, Western blot). It counts as cell-based, human. Here is the method:
(§4) Western blot. […] The cells were lysed using water bath ultrasonicator for 4 mins. Cell lysate were cleared by centrifugation. We measured the concentration of protein in lysates. Denatured lysates were loaded into 4-20% Tris-glycine gels (Novex) and separated at 180V for 2 hrs. The gels were transferred unto a PVDF membrane by semi-dry blotting for 1 hr. We blocked the membrane in 5% non-fat milk TBST buffer for 30 mins and incubated with primary antibodies RPS11 (1:500), FANCB (1:500), GAPDH or ACTB (1:1500) in 5% BSA respectively over night shaking at 4° C. Primary antibodies were removed and we added the secondary polyclonal HRP (1:20,000) in TBST and incubated shaking for 2 hrs at room temp. The membrane were washed 6× in TBST and then developed with ECL (Cat No: 1705061) and band imaged on a Bio-Rad Chemi-doc imaging system. qRT-PCR. […] The total RNA was extracted using Zymo Research kit (Direct-zol RNA Miniprep Plus, Cat no: R2070). The quality of the RNA was determined by RNA pico bioanalyzer measuring the 18S and 28S ribosome. Using the superscript III first strand synthesis system (Cat no: 18080-051), we generated cDNA and performed qPCR with APAF1 and ACTB primers in triplicates and fold change of expression of APAF1 were normalized against actin B (ACTB).
Background: Real-time PCR tracks product formation cycle by cycle.

Data set [16] concerns APAF1, SNB19 WT and non-targeting control cells. Description: APAF1 expression (qRT-PCR, Western blot). The data set is classed as cell-based, human. On the procedure:
as §4

For data set [17], the system named is BCL2, GBM6. Description: BCL2 expression by flow cytometry. It counts as cell-based, human. To be noted: GBM6, 24 hrs. For orientation: In flow cytometry, cells or beads pass a laser one at a time.
Data set [18] deals with BCL2, GBM12. Description: BCL2 expression by flow cytometry. The conditions noted are these: GBM12, 24 hrs. It counts as cell-based, human. On the procedure:
as §3

Data set [19] relates to BID, susceptible glioma cells. Description: BID expression by flow cytometry. To be noted: susceptible glioma cells compared to resistant cells, 24 hrs. The data set is classed as cell-based, human. Here is the method: as §3
The conditions of data set [20]: gliomas and brain metastases, systemic administration, human; cited from earlier work.

Take `COc1cccc2c1C(=O)c1c(O)c3c(c(O)c1C2=O)C[C@@](O)(C(=O)CO)C[C@@H]3O[C@H]1C[C@H](N)[C@H](O)[C@H](C)O1` [doxorubicin]: the “susceptibility (viability)” value in [1] is reported as “resistant”; in [2], “acquired resistance”.
The compound `COc1cc([C@@H]2c3cc4c(cc3[C@@H](O[C@@H]3O[C@@H]5CO[C@@H](C)O[C@H]5[C@H](O)[C@H]3O)[C@H]3COC(=O)[C@H]23)OCO4)cc(OC)c1O` [etoposide] registered a cells death in [3] of 80%. The cell death result in data set [4] is on record as “minimal cell death”. In addition, the cells surviving treatment entry in data set [5] is reported as “less than 1%”. Moreover, the “susceptibility (viability)” value in data set [1] was “resistant”; in data set [2] it was “acquired resistance”. For the same compound, the susceptibility to etoposide result in data set [6] was “resistance”; in data set [7], “less sensitive”; in data set [8], “resistance”; in data set [9], “susceptible”; in data set [10], “susceptible”. Further, the “nascent proteins following etoposide treatment” value in data set [11] is given as “decrease in nascent proteins”; in data set [12], “decrease in nascent proteins”; in data set [13], “no decrease in nascent proteins”; in [14] it was “no decrease in nascent proteins”. In addition, the “APAF1 protein following etoposide treatment” value in [15] was “decrease”. Moreover, the “APAF1 transcript following etoposide treatment” value in [15] (24 hrs) is on record as “no significant expression changes”; in data set [16] (SNB19 WT and non-targeting control cells, 24 hrs), “significant induction”. The “APAF1 protein levels following etoposide treatment” value in data set [16] (SNB19 wild-type and non-targeting control cells) is on record as “increased”. The “BCL2 expression following etoposide treatment” value in [17] and in [18] was “increase” throughout. For the same compound, the “BID expression following etoposide treatment” value in [19] was “increased BID expression”. Besides, in [20], the “intratumoral concentration in tumor tissue” value was 2 to 6 µM.
